# Measurements reported in PMC11284788, “NN1213 – A Potent, Long-Acting, and Selective Analog of Human Amylin” (Journal of Medicinal Chemistry, 2024).
# Where two headings read alike, the source gives them in different places. Numbered stars: 1 amine (or outer) side, 2 acyl side, 3 side chain; on linkers, the order of the positions; unused ones are H or OH. Bridge positions count the residues as written; N and C are the ends. Peptide text beside a SMILES is read from it. * marks the point of attachment. C20 diacid = O=C(O)CCCCCCCCCCCCCCCCCCC(=O)*; γGlu = O=C(O)[C@H](CCC(=O)[*:2])N[*:1]
# Columns and labels:
# [1] = biological target: T1, rCTR (Rattus norvegicus, UniProt P32214); assay: scintillation proximity binding assay, rCTR membranes
# T1 construct: expressed in transfected cells; host or cells: BHK tk-ts 13, transient (FuGENE 6)
# T1 sequence (P32214 25-479 isoform P32214-2 limits assumed): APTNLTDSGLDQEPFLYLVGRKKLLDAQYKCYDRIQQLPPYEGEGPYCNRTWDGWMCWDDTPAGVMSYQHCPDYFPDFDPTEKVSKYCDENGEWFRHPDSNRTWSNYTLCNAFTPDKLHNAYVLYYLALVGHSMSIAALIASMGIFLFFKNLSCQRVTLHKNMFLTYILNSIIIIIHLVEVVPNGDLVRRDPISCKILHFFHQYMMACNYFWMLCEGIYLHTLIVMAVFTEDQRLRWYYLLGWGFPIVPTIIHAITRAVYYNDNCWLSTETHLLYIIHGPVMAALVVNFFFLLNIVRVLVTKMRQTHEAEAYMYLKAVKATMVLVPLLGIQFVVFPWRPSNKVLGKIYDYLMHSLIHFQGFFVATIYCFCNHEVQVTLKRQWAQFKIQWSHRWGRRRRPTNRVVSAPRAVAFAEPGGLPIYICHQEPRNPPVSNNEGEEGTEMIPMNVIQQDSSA
# Method: The apparent binding affinities were determined using a scintillation proximity assay with beads from PerkinElmer and cell membranes containing the AMY3R or CTRs. […] Membranes were harvested and membranes were prepared and kept at −80 °C until use. The assay was performed in a 384-well Optiplate (PerkinElmer). Membranes were mixed with scintillation proximity assay beads in a 1:1 ratio. […] Samples were analyzed on a TopCounter (Packard). The IC50 values were calculated using GraphPad Prism. See Supporting Information S7: SAR Screening Assay Methods (Binding Assays (Human and Rat)) for more information.
# Binding Assays (Human and Rat). Brief descriptions of the methods used to determine binding affinities for SAR analysis are described below. Curves and IC50 values were plotted and calculated in GraphPad Prism using nonlinear regression (one site binding competition analysis), with pIC50 values […]
# values were used to calculate the binding affinity ratios in order to express the selectivity of compounds for the AMY3R versus the CTR.
# CTR Binding Assay. The binding assay was performed using scintillation proximity assay (SPA) beads (RPNQ0001) from PerkinElmer and cell membranes containing either the hCTR or rCTR. BHK […]
# Membranes were prepared in the following way: the cells were rinsed with PBS and incubated with Versene for approximately 5 min before harvesting. The cells were flushed with PBS and the cell-suspension was centrifuged for 5 min at 1000 rpm. Cells were homogenized (Ultra Turrax) in a buffer […]
# containing 20 mM Na-HEPES and 0.1 mM EDTA (pH 7.4, buffer 2). The resulting pellet was re-suspended in buffer 2 and protein concentration was measured (BCA protein assay, Pierce). The homogenate was kept cold during the whole procedure. The membranes were stored at –80 °C until […]
# The binding assay was performed in a 384-well Optiplate (PerkinElmer) in a total volume of 40 μL.
# Membranes were mixed with SPA beads in a 1:1 ratio. […]
# mg/well. Test compounds were dissolved in DMSO and further diluted in assay buffer (50 mM HEPES, pH 7.4, 1 mM CaCl2, 5 mM MgCl2, 0.1% ovalbumin, and 0.02% Tween-20).
# Calcitonin (NEX422 PerkinElmer) was dissolved in assay buffer and added to the Optiplate at a final […]
# prior to centrifugation (1500 rpm, 10 min). Samples were analyzed on TopCounter (Packard).
# [2] = Solubility versus pH profile
# [3] = ThT assay: fibril formation propensity and peptide recovery; assay type: physicochemical; settings: for ThT, pH 4.0 lag-time: 250 μM peptide, 10 mM glycylglycine pH 4.0, 1 μM ThT, 37 °C, 960 rpm, 45 h, lowest of four replicas, average of experiments; for recovery: pH 4.0, residual dissolved peptide after 45 h of shaking, centrifugation and 0.22 μm filtration, HPLC, relative to amount before stress
# Procedure, shortened: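 Fibrillation lag time is read visually from ThT fluorescence-time curves (444/485 nm, 20-min reads, 45 h, 37 °C, 960 rpm shaking) of 250 μM peptide with 1 μM ThT at pH 4.0 or 7.5. The most conservative of four replicates is used. Peptide recovery is post-stress soluble peptide (HPLC, 215/276 nm) as fraction of initial.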
# [4] = HMWP content by size-exclusion chromatography; assay type: physicochemical; settings: analogs 10–21 (pH 4.0 series); covalent dimers and polymers prior to fibril formation testing, SEC, % of total absorbance area at 215 nm
# Procedure, shortened: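 HMWP percentage is the covalent dimer/polymer peak area relative to total absorbance area, with extinction coefficients taken as equal to the main peak. Isocratic size-exclusion elution used 50% (v/v) 2-propanol containing 0.5 M NaCl and phosphate buffer; measured on analogs prior to fibril assays.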
# [5] = bis-tris-propane buffer, pH 6, aqueous buffer
# [6] = bis-tris-propane buffer, pH 6.5, aqueous buffer
# [7] = bis-tris-propane buffer, pH 7, aqueous buffer
# [8] = bis-tris-propane buffer, pH 7.5, aqueous buffer
# [9] = bis-tris-propane buffer, pH 8, aqueous buffer
# [10] = lactate buffer, pH 4, aqueous buffer
# [11] = lactate buffer, pH 5, aqueous buffer
SMILES,"IC50 ([1]; SPA binding assay, Tables S13 and S15, read-out: rCTR pIC50 (converted)) [nM]","IC50 ([1]; SPA, BHK cell membranes, 125I-Calcitonin 75 pM, 120 min 25 °C, read-out: rCTR IC50) [nM]","solubility kinetic [2, 5] [µM]","solubility kinetic [2, 6] [µM]","solubility kinetic [2, 7] [µM]","solubility kinetic [2, 8] [µM]","solubility kinetic [2, 9] [µM]","solubility kinetic [2, 10] [µM]","solubility kinetic [2, 11] [µM]","ThT, pH 4.0 lag-time [3] [h]",recovery [3] [%],HMWP [4] [%],"rCTR pIC50 ([1]; SPA binding assay, Tables S13 and S15)"
CC[C@H](C)[C@H](NC(=O)[C@H](C)NC(=O)CNC(=O)[C@H](Cc1ccccc1)NC(=O)[C@H](CC(N)=O)NC(=O)[C@@H]1CCCN1C(=O)[C@H](CO)NC(=O)[C@H](CO)NC(=O)[C@H](Cc1c[nH]cn1)NC(=O)[C@H](CCCNC(=N)N)NC(=O)[C@H](CC(C)C)NC(=O)[C@H](Cc1ccccc1)NC(=O)[C@H](CC(N)=O)NC(=O)[C@H](C)NC(=O)[C@H](CC(C)C)NC(=O)[C@H](CCCNC(=N)N)NC(=O)[C@H](CCC(N)=O)NC(=O)[C@@H](NC(=O)[C@H](C)NC(=O)[C@@H]1CSSC[C@H](NC(=O)[C@H](CCCCN)NC(=O)CC[C@H](NC(=O)CCCCCCCCCCCCCCCCCCC(=O)O)C(=O)O)C(=O)N[C@@H](CC(N)=O)C(=O)N[C@@H]([C@@H](C)O)C(=O)N[C@@H](C)C(=O)N[C@@H]([C@@H](C)O)C(=O)N1)[C@@H](C)O)C(=O)N1CCC[C@H]1C(=O)N[C@@H](CO)C(=O)N[C@@H](CO)C(=O)N[C@H](C(=O)N[C@@H](CC(N)=O)C(=O)N[C@H](C(=O)NCC(=O)N[C@@H](Cc1c[nH]cn1)C(=O)N[C@@H](CC(N)=O)C(=O)N[C@H](C(=O)N[C@@H](Cc1ccc(O)cc1)C(N)=O)[C@@H](C)O)C(C)C)[C@@H](C)O [Peptide 17],50.1,49.8,≥ 200,≥ 200,≥ 200,≥ 200,≥ 200,≥ 200,≥ 200,26,92,1.7,
CC[C@H](C)[C@H](NC(=O)[C@H](C)NC(=O)CNC(=O)[C@H](Cc1ccccc1)NC(=O)[C@H](CC(N)=O)NC(=O)[C@@H]1CCCN1C(=O)[C@H](CO)NC(=O)[C@H](CO)NC(=O)[C@H](Cc1c[nH]cn1)NC(=O)[C@H](CCCNC(=N)N)NC(=O)[C@H](CC(C)C)NC(=O)[C@H](Cc1ccccc1)NC(=O)[C@H](CC(N)=O)NC(=O)[C@H](C)NC(=O)[C@H](CC(C)C)NC(=O)[C@H](CCCNC(=N)N)NC(=O)[C@H](CCC(N)=O)NC(=O)[C@@H](NC(=O)[C@H](C)NC(=O)[C@@H]1CSSC[C@H](NC(=O)[C@H](CCCNC(=N)N)NC(=O)CNC(=O)CC[C@H](NC(=O)CCCCCCCCCCCCCCCCCCC(=O)O)C(=O)O)C(=O)N[C@@H](CC(N)=O)C(=O)N[C@@H]([C@@H](C)O)C(=O)N[C@@H](C)C(=O)N[C@@H]([C@@H](C)O)C(=O)N1)[C@@H](C)O)C(=O)N1CCC[C@H]1C(=O)N[C@@H](CO)C(=O)N[C@@H](CO)C(=O)N[C@H](C(=O)N[C@@H](CC(N)=O)C(=O)N[C@H](C(=O)NCC(=O)N[C@@H](CO)C(=O)N[C@@H](Cc1c[nH]cn1)C(=O)N[C@H](C(=O)N[C@@H](Cc1ccc(O)cc1)C(N)=O)[C@@H](C)O)C(C)C)[C@@H](C)O [Peptide 19] ({C20 diacid-γGlu}-GRCNTATCATQRLANFLRHSSPNFGAIPSSTNVGSHTY-NH2; disulfide 3-8),,,≥ 200,≥ 200,≥ 200,50,68,≥ 200,≥ 200,>45,84,0.3,7.77
